According to BindingDB's records for doi:10.1016/s0969-8051(99)00080-3 (Emory University, 2000):

Tests used:
[1] = biological target: Sodium-dependent dopamine transporter (Homo sapiens, UniProt Q01959)
[2] = biological target: Sodium-dependent noradrenaline transporter (Homo sapiens, UniProt P23975)
Chain of Sodium-dependent noradrenaline transporter (P23975 whole entry): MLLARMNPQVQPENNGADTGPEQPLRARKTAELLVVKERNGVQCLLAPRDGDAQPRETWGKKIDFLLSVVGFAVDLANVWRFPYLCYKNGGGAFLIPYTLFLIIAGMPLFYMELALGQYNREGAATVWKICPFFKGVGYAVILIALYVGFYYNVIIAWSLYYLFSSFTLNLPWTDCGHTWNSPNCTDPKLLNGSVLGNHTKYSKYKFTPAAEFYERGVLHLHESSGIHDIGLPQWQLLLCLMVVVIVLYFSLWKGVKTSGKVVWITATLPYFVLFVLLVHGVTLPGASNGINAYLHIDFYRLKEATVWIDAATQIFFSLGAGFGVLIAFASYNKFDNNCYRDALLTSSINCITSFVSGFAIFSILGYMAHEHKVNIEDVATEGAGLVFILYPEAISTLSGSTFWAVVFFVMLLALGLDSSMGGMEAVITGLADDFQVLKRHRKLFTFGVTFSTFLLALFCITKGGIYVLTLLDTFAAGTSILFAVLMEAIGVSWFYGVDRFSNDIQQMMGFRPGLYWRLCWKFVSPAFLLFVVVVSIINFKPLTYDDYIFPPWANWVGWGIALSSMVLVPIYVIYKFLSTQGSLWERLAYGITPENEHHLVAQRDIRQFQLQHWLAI

Chain of Sodium-dependent dopamine transporter (Q01959 whole entry): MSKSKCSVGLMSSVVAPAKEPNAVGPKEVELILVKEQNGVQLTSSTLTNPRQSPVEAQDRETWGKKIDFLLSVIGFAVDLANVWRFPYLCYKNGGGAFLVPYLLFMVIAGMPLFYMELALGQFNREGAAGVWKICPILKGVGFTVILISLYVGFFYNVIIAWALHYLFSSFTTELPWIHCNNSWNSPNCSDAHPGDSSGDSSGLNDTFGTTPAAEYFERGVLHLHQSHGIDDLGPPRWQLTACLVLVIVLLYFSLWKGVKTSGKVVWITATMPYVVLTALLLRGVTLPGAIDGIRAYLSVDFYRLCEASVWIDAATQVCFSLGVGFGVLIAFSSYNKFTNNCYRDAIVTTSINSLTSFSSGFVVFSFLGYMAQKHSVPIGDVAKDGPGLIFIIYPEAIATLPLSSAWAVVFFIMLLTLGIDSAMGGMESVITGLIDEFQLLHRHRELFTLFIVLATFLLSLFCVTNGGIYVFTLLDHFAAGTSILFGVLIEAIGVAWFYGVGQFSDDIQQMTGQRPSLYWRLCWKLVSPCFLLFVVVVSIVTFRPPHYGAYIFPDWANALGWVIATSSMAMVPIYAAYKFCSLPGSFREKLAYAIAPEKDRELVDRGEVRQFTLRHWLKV

In the case of `COC(=O)C1C(c2ccc(Cl)cc2)CC2CCC1N2CCF` (configuration not stated) [MOLI000038], the Ki [1] is reported as 1.53 nM and the Ki [2] is reported as 240 nM.
